From patent publication US4211876A, “3-Pyrazolidinone carboxamides” (E. I. Du Pont de Nemours and Company, priority 1979, dated 1980)
Converted amounts (≈) assume the structure as drawn.

Tests used:
[1] = test system: rat stomach strip (fundus), contraction caused by PGE1; test: rat stomach assay: PGE1 antagonism, inhibition of PGE1-induced contraction of rat stomach fundus muscle strips; assay type: cell-based; conditions: Tyrode solution pH 7.1, 37°, PGE1 at concentration causing about 25% of maximum response; for IC50: Rattus norvegicus, pH 7.1, rat stomach fundus strip, read-out: PGE1 Antagonist IC50
Description: J. Pharmacol. 12, 344 (1957)]. Male rats are decapitated and a strip is cut from the fundus of the stomach along the greater curvature. The strip (3 to 5 mm wide and 3 to 4 cm long) is suspended in Tyrode solution at pH 7.1 and 37° and gassed continuously with oxygen. Responses of the muscle are monitored isometrically by means of a strain gauge transducer. The above table lists for several compounds of this invention the concentration in μg/ml required to inhibit by 50% the contraction of muscle strips caused by a concentration of PG1 that normally causes about 25% of maximum responses ([…]). Some of the carboxamides were also run against higher concentration of PGE1 and gave greater IC50 values.

[2] = test system: ethanol-induced gastric ulcer; test: ethanol-induced gastric ulcer test in rats (gastric cytoprotection); assay type: in vivo, rat; conditions: for protection against ulcers: 2.0 mg/kg
Description: One of these compounds is the tert-butylcarboxamide 7 of Example 3. In a test designed to detect gastric cytoprotectin [Robert, U.S. Pat. No. 4,097,603], compound 7 inhibited ethanol-induced gastric ulcer to the extent of about 50 % when administered orally to rats at 2 mg/kg. Under similar conditions 0.5 mg/kg of PGE1 inhibited ulcer formation to the extent of 80%. […] At 2.0 mg/kg compound 14 of Example 7 gave about 18% protection and compound 16 of Example 8 gave about 27% protection against ulcers.

[3] = side effects after oral administration to rats; assay type: in vivo, rat
[4] = pKa measured in 1:1 ethanol/water; assay type: physicochemical; conditions: p-toluenesulfonate salt
Description: This iodamide was treated with pyrazolidinone 6 by a procedure analogous to that used for the synthesis of 10, Example 4b. The crude product 15, was obtained as an oil in 94% yield. A solution of 6.84 g of 15 in 3 ml of dry acetonitrile was added to a solution of 3.39 g of p-toluenesulfonic acid in 26 ml of dry acetonitrile, giving 5.12 g (66%) of salt 16, mp 123°-126°. Recrystallization from acetonitrile gave analytically pure salt 16, mp 129°-130.5°; Anal. calcd. for C28 H49 N3 SO6 : C, 60.51; H, 8.89; N, 7.56; found C, 60.50; H, 8.75; N, 7.89.

[5] = rats, oral, doses as high as 300 mg/kg

Row | IC50 [1] [µg/mL] | SMILES | other results
1 | 60 (≈ 151 µM) | CCCCCC(O)CCN1CCC(=O)N1CCCCCCC(=O)NC(C)(C)C (stereo not drawn) [Compound 1, N-(tert-butyl)-7[3-oxo-1(3-hydroxy-n-octyl)pyrazolidin-2-yl]heptanamide] | 
2 |  | CCCCC[C@H](O)/C=C/[C@H]1[C@H](O)CC(=O)[C@@H]1CCCCCCC(=O)O [PGE1, reference compound] | inhibition of ulcer formation ([2]; similar conditions, 0.5 mg/kg): 80%
3 | 20 (≈ 47 µM) | CCCCCC(O)CCN1C(=O)CCN1CCCCCCC(=O)N(C(C)C)C(C)C (stereo not drawn) [Compound 13, N,N(Diisopropyl)7-[3-oxo-2(3-hydroxy-n-octyl)-pyrazolidin-1-yl]heptanamide] | 
4 | 5 (≈ 12.1 µM) | CCCCCC(O)CCN1C(=O)CCN1CCCCCCC(=O)NC(C)(C)CC (stereo not drawn) [Compound 12, N(1,1-Dimethylpropyl)7-[3-oxo-2(3-hydroxy-n-octyl)pyrazolidin-1-yl]heptanamide] | 
5 | 175 (≈ 492 µM) | CCCCCC(O)CCN1C(=O)CCN1CCCCCCC(=O)NC (stereo not drawn) [Compound 17, N-methyl-7[3-oxo-2(hydroxy-n-octyl)pyrazolidin-1-yl]heptanamide] | 
6 | 3 to 5 (≈ 7.29 to 12.1 µM) | CCCCCC(O)CCN1C(=O)CCN1CCCCCCC(=O)NCC(C)(C)C (stereo not drawn) [Compound 10, N(2,2-Dimethylpropyl)7[3-oxo-2(3-hydroxy-n-octyl)-pyrazolidin-1-yl]heptanamide] | 
7 | 25 (≈ 60.7 µM) | CCCCCC(O)CCN1CCC(=O)N1CCCCCCC(=O)NC(C)(C)CC (stereo not drawn) [Compound 5, N(tert-Amyl)7[3-oxo-1(3-hydroxy-n-octyl)pyrazolidin-2-yl]heptanamide] | 
8 |  | CCCCCC(O)CCN1C(=O)CCN1CCCCCCC(=O)NC(C)(C)C (stereo not drawn) [Compound 9, N(tert-Butyl)7[3-oxo-2-(3-hydroxy-n-octyl)pyrazolidin-1-yl]heptanamide] | PGE1 Antagonist IC50 ([1]; rat stomach fundus strip): 60 µg/mL

Row | SMILES | IC50 [1] [µg/mL] | other results
9 | CCCCCC(O)CCN1C(=O)CCN1CCCCCCC(=O)NC(C)(C)C (stereo not drawn) [Compound 7, N(tert-Butyl)7[3-oxo-2-(3-hydroxy-n-octyl)pyrazolidin-1-yl]heptanamide] | 33 (≈ 83 µM) | overt prostaglandin-like side effects ([3]; rat, in vivo, po): no overt prostaglandin-like side effects; diarrhea [3, 5]: no mortality or diarrhea; mortality [3, 5]: no mortality; inhibition of ethanol-induced gastric ulcer ([2]; oral, 2 mg/kg): about 50%
10 | CCCCCC(O)CCN1C(=O)CCN1CCCCCCC(=O)NC(C)(C)CC(C)(C)C (stereo not drawn) [Compound 14, N(1,1,3,3,-Tetramethyl-n-butyl)7[3-oxo-2(3-hydroxy-n-octyl)pyrazolidin-1-yl]heptanamide] | 2 (≈ 4.41 µM) | protection against ulcers [2]: about 18%
11 | CCCCCC(O)CCN1C(=O)CCN1CCCCCCC(=O)NC(C)C (stereo not drawn) [Compound 16, N(iso-Propyl)7[3-oxo-2(3-hydroxy-n-octyl)pyrazolidin-1-yl]heptanamide] | 75 (≈ 196 µM) | pKa [4]: 3.25; protection against ulcers [2]: about 27%
